Residues, ends and D or L forms follow the SMILES beside them.
What was measured:
Type in all cases: biochemical
bovine alpha-lactalbumin = target: T1, bovine alpha-lactalbumin (Bos taurus, UniProt P00711); assay: Alpha-lactalbumin aggregation (turbidity at 360 nm) induced by DTT; conditions: for inhibition index: α Lactalbumin 0.4 mg/mL, 37° C., DTT, compound 1,000×, standard deviation in parenthesis
T1 construct: purchased Sigma
T1 sequence (P00711 20-142): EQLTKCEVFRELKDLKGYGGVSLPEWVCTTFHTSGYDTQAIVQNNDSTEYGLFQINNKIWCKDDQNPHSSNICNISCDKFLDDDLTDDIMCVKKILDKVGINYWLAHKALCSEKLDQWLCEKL
How it was run: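 Bovine alpha-lactalbumin (0.4 mg/mL (2.82E-5 M)) was prepared in 50 mM sodium phosphate, 100 mM sodium chloride and 2 mM EDTA, pH 6.2. Aggregation was triggered with 20 μL of 1 M DTT […] at 37° C. and followed for 1 hour as optical density at 360 nm, compared against protein without the dipolar compound.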

[1] = target: T2, porcine heart citrate synthase (CS) (Sus scrofa, UniProt P00889); assay: Citrate synthase thermal aggregation (turbidity at 360 nm); conditions: for inhibition index: CS 96 μg/mL, 45° C., standard deviation in parenthesis
T2 construct: porcine heart citrate synthase (CS); from tissue; host or cells: porcine heart
T2 sequence (P00889 28-464): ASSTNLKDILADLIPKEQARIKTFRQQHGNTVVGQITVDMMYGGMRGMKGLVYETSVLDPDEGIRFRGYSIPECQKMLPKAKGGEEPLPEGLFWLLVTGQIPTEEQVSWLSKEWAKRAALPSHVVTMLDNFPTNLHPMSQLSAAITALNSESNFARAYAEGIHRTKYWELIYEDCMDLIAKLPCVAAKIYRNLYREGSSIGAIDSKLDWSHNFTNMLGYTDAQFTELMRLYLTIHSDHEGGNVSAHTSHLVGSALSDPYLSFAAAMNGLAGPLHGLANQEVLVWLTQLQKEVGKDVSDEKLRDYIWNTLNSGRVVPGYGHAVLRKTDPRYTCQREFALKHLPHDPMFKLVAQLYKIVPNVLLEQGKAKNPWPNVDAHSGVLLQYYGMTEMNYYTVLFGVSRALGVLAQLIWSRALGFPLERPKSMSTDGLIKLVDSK
How it was run: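 Heat-induced aggregation followed as OD360 for 1 h, cycled every 30 s: citrate synthase 96 μg/mL in HEPES/KCl/(NH4)2SO4 buffer pH 7.8 at 45° C; FGF-1 50 μg/mL in phosphate/NaCl pH 7.2 at 50° C. Rate taken as maximum slope of OD versus time, compared with protein without additive.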

[2] = target: T3, yeast alcohol dehydrogenase (ADH) (Saccharomyces cerevisiae, UniProt P00330); assay: ADH oxidation-induced aggregation (turbidity at 360 nm), Cu(OP)2; conditions: ADH 1 mg/mL, 37° C., Cu(OP)2
T3 construct: purchased Sigma
T3 sequence (P00330 2-348 limits assumed): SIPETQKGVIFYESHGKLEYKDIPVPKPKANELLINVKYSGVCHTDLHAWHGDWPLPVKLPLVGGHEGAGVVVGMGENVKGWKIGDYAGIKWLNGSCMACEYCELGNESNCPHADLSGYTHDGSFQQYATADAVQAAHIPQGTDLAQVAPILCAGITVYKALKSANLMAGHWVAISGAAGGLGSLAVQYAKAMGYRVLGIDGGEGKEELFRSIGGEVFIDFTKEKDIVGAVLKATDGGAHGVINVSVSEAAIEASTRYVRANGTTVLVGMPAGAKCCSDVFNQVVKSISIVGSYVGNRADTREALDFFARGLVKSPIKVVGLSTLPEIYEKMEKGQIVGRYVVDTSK
How it was run: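 OD360 was followed for 1 h against protein without test compound. pST (1.27 mg/mL, pH 6.1 phosphate) at 60° C with 20 mg/mL PEG 8000; lysozyme (0.4 mg/mL, pH 8.2 Tris/EDTA) at 25° C and HLF (0.4 mg/mL, pH 7.4 HEPES) at 43° C with 1.27E-4 M DTT; ADH (1 mg/mL) 37° C, 7.76E-5 M Cu(OP)2.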

[3] = compound 1,000X, standard deviation in parenthesis
[4] = compound 10,000X molar excess, Infinite = complete inhibition of aggregation over one hour

inhibition index (bovine alpha-lactalbumin)	inhibition of citrate synthase aggregation, in words [1]	inhibition index ([1]; compound 1,000X)	inhibition index ([1]; compound 10,000X)	inhibition index ([1]; compound 50,000X)	inhibition index [2, 3]	inhibition index [2, 4]	inhibition of α-lactalbumin aggregation, in words (bovine alpha-lactalbumin)	Compound
0.9 (0.1)	Potent inhibitors	1.0 (0.2)	0.7 (0.2)	1.0	5.0 (1.4)	187.6 (46.1)		NCC(=O)NCC(=O)NCC(=O)O [triglycine] (H-Gly-Gly-Gly-OH)
1.3 (0.4)		1.5 (0.1)			8.4 (2.7)	5313.1		tetraglycine

Second part, the compound before the results:

Compound	inhibition index (bovine alpha-lactalbumin)	inhibition of citrate synthase aggregation, in words [1]	inhibition index ([1]; compound 1,000X)	inhibition index ([1]; compound 10,000X)	inhibition index ([1]; compound 50,000X)	inhibition index [2, 3]	inhibition index [2, 4]	inhibition of α-lactalbumin aggregation, in words (bovine alpha-lactalbumin)
Glu-Glu	1.0 (0.1)	Potent inhibitors	0.8 (0.1)	1.5 (0.1)	1430.3	1.4 (0.2)	5.3 (1.2)	
Lys-Lys	1.0 (0.1)		0.9 (0.1)	1.6 (0.3)	86.8	1.4 (0.2)	2.7	
diglycine	1.0 (0.0)	Potent inhibitors	0.8 (0.1)	0.9 (0.3)	1.5 (0.2)	4.0 (0.9)	0.7 (0.1)	
pentaglycine	3.1 (1.2)		0.6 (0.2)			5.8 (3.1)	Infinite^4	Potent inhibitors

Reference: patent publication US20030125234A1, “Alteration of protein stability” (priority 2001, published 2003)
